Laboratory results published in patent EP0326963B1, “Deodorant as well as deodorizing food, drink and seasoning” (priority 1988, dated 1989).
Several values for one entry are separate records, joined by “and”; a condition that tells them apart may be missing. Equal values may be shown once.

What was measured:
urogenous smell [1] = assay: Test Example 1: smell of fresh urine of cats, potassium phytate solution 8mg/ml; format: in vivo; set-up: key to Deodorizing Effects 1st day / Deodorizing Effects 3rd day / Deodorizing Effects 5th day / Deodorizing Effects 7th day / Deodorizing Effects 14th day: 1: No change; 2: Weaken; 3: Almost no recognizable smell
Protocol: A solution containing potassium phytate in an amount of 8mg/ml (Example 1) was administered to cats (5 heads, body weight of about 5kg) in an amount of 3ml/head/day over 14 days. After 1, 3, 5, 7 and 14 days from the first administration, fresh urine was taken with use of a catheter to immediately check a degree of its smell by 3 judges. […]

urogenous smell [2] = assay: Test Example 10: urogenous smell of rats fed high protein cat food; format: in vivo; set-up: key: Judged by 4 stage judgement of ++, +, ± and −; Judged by 4 stage judgement of ++, +, ± and −; Judged by 4 stage judgement of ++, +, ± and −; Judged by 4 stage judgement of ++, +, ± and −
Protocol: As experimental animal, rats were employed, they had been fed with a cat food of high protein content (30%) to excrete urine with a smell inherent in that of cats. To test group I, potassium phytate was administrated in abdominal cavity at a dose of 3mg/day over 5 days and while, to test group II, the compound was given in the similar to the above but at a dose of 30mg/day. To control group, no compound was given.

urogenous smell [3] = assay: Test Example 2: smell of fresh urine of cats, potassium phytate solution 20mg/ml; format: in vivo, crossbred mature cats; set-up: key to Deodorizing Effects 1st day / Deodorizing Effects 3rd day / Deodorizing Effects 5th day / Deodorizing Effects 7th day: 1: No change; 2: Weaken; 3: Almost no recognizable smell; details: 20mg/ml solution
Protocol: A solution containing potassium phytate in an amount of 20mg/ml (Example 1) was administered to crossbred mature cats (8 heads, body weight of about 5kg) in an amount of 3ml/head/day over 7 days. After 1, 3, 5 and 7 days from the first administration, fresh urine was taken with use of a catheter to immediately check a degree of its smell by 3 judges. […]

urogenous smell [4] = assay: Test Example 6: urogenous smell of hamsters, potassium phytate in drinking water; format: in vivo; details: hamsters (2 pairs); 10mg/kg in drinking water over 14 days; checked on finely cut newspaper used as litter
Protocol: An aqueous solution containing potassium phytate in an amount of 20mg/ml was prepared. The solution was added to drinking water for each experimented animal (hamsters, 2 pairs) over 14 days, so that each animal can intake the compound in an amount of 10mg/kg.

urogenous smell [5] = assay: Test Example 4: smell of fresh urine of cats, cat food containing potassium phytate; format: in vivo, crossbred mature cats; set-up: key to Deodorizing Effects 2nd day / Deodorizing Effects 3rd day / Deodorizing Effects 4th day / Deodorizing Effects 5th day / Deodorizing Effects 7th day: 1: No change; 2: Weaken; 3: Almost no recognizable smell; details: cat food with 0.1mg/g
Protocol: To a moisture type cat food, potassium phytate was composed in an amount of 0.1mg/g. The cat food was given to crossbred mature cats (2 heads, body weight of about 5kg) in an amount 100g/day over 7 days. After 2, 3, 4, 5 and 7 days from the first administration, fresh urine was taken with use of a catheter to immediately check a degree of its smell by 3 judges. […]

urogenous smell [6] = assay: Test Example 5: smell of fresh urine of rabbits, potassium phytate in drinking water; format: in vivo; set-up: key to Deodorizing Effects 1st day / Deodorizing Effects 3rd day / Deodorizing Effects 5th day / Deodorizing Effects 7th day / Deodorizing Effects 14th day: 1: No change; 2: Weaken; 3: Almost no recognizable smell
Protocol: An aqueous solution containing potassium phytate in an amount of 20mg/ml was added to 170 ml of drinking water for each experimented animal (rabbits, 2 heads) in amount of 2ml. The resulting drinking water was given for each day over 14 days, so that it can be […] by the animal in free together with their food. After 1, 3, 5, 7 and 14 days from the first giving of the drinking water containing the compound, fresh urine was taken with use of a catheter to immediately check a degree of its smell by 3 judges. […] While, there was no change in a fragrant smell which may be considered due to plant terpenes contained in their food.

[7] = cats, 8mg/ml solution, 3ml/head/day
[8] = test group I: 3mg/day in abdominal cavity over 5 days
[9] = test group II: 30mg/day in abdominal cavity over 5 days
[10] = rabbits, potassium phytate in drinking water

Q: How did the “Efficiency 1st day” value (urogenous smell [1]; cats (5 heads), 8mg/ml solution, 3ml/head/day, 1st day) turn out when O=P(O)(O)O[C@H]1[C@H](OP(=O)(O)O)[C@@H](OP(=O)(O)O)[C@H](OP(=O)(O)O)[C@@H](OP(=O)(O)O)[C@H]1OP(=O)(O)O [potassium phytate, Potassium phytate] was run?
A: Its value is 0/5.

Q: What about the “Efficiency 3rd day” value (urogenous smell [1]; cats (5 heads), 8mg/ml solution, 3ml/head/day, 3rd day) of the same compound?
A: Its value is 0/5.

Q: And the “Efficiency 5th day” value (urogenous smell [1]; cats (5 heads), 8mg/ml solution, 3ml/head/day, 5th day)?
A: The value was 4/5.

Q: And the “Efficiency 7th day” value (urogenous smell [1]; cats (5 heads), 8mg/ml solution, 3ml/head/day, 7th day)?
A: The value was 5/5.

Q: And the “Efficiency 14th day” value (urogenous smell [1]; cats (5 heads), 8mg/ml solution, 3ml/head/day, 14th day)?
A: Its value is 5/5.

Q: What about the “deodorizing effect of the compound appears” value (urogenous smell [1]; [7]) of the same compound?
A: The value was “by third day”.

Q: What about the “urogenous smell was disappeared” value (urogenous smell [1]; [7]) of the same compound?
A: Its value is “on fifth day”.

Q: What about the similar test repeated (urogenous smell [1]; cats, repeated after 10 days from the final administration) of the same compound?
A: Its similar test repeated is “results same with said first test”.

Q: What about the “urogenous smell after the final administration” value (urogenous smell [1]; cats, several days after the final administration) of the same compound?
A: The value was “appeared again”.

Q: And the “Deodorizing Effects 3rd day” value (urogenous smell [1]; individual cat, 8mg/ml solution, 3ml/head/day over 14 days, 3rd day)?
A: The value was 1 and 2 (4×).

Q: What about the “Deodorizing Effects 5th day” value (urogenous smell [1]; individual cat, 8mg/ml solution, 3ml/head/day over 14 days, 5th day) of the same compound?
A: Its value is 2 and 3 (4×).

Q: And the “Deodorizing Effects 7th day” value (urogenous smell [1]; individual cat, 8mg/ml solution, 3ml/head/day over 14 days, 7th day)?
A: Its value is 3.

Q: And the “Deodorizing Effects 14th day” value (urogenous smell [1]; individual cat, 8mg/ml solution, 3ml/head/day over 14 days, 14th day)?
A: Its value is 3.

Q: And the “Deodorizing Effects 1st day” value (urogenous smell [1]; individual cat, 8mg/ml solution, 3ml/head/day over 14 days, fresh urine, 3 judges, 1st day)?
A: The value was 1.

Q: And the “Urogenous Smell 3rd day” value (urogenous smell [2]; [8])?
A: Its value is “+”.

Q: What about the “Urogenous Smell 6th day” value (urogenous smell [2]; [8]) of the same compound?
A: The value was “±”.

Q: And the “Urogenous Smell 9th day” value (urogenous smell [2]; [8])?
A: Its value is “+”.

Q: And the “Urogenous Smell 3rd day” value (urogenous smell [2]; [9])?
A: The value was “±”.

Q: And the “Urogenous Smell 6th day” value (urogenous smell [2]; [9])?
A: Its value is “±”.

Q: And the “Urogenous Smell 9th day” value (urogenous smell [2]; [9])?
A: The value was “+”.

Q: And the “Efficiency 1st day” value (urogenous smell [3]; cats (8 heads), 3ml/head/day, 1st day)?
A: Its value is 0/8.

Q: What about the “Efficiency 3rd day” value (urogenous smell [3]; cats (8 heads), 3ml/head/day, 3rd day) of the same compound?
A: The value was 0/8.

Q: And the “Efficiency 5th day” value (urogenous smell [3]; cats (8 heads), 3ml/head/day, 5th day)?
A: Its value is 8/8.

Q: And the “Efficiency 7th day” value (urogenous smell [3]; cats (8 heads), 3ml/head/day, 7th day)?
A: The value was 8/8.

Q: What about the “deodorizing effect of the compound appears” value (urogenous smell [3]; cats, 3ml/head/day) of the same compound?
A: Its value is “by third day”.

Q: What about the urogenous smell disappeared (urogenous smell [3]; cats, 3ml/head/day) of the same compound?
A: Its urogenous smell disappeared is “on fifth day”.

Q: What about the “Deodorizing Effects 1st day” value (urogenous smell [3]; individual cat, 3ml/head/day over 7 days, 1st day) of the same compound?
A: Its value is 1 (6×) and 2 (2×).

Q: What about the “Deodorizing Effects 3rd day” value (urogenous smell [3]; individual cat, 3ml/head/day over 7 days, 3rd day) of the same compound?
A: Its value is 2.

Q: And the “Deodorizing Effects 5th day” value (urogenous smell [3]; individual cat, 3ml/head/day over 7 days, 5th day)?
A: Its value is 3.

Q: What about the “Deodorizing Effects 7th day” value (urogenous smell [3]; individual cat, 3ml/head/day over 7 days, 7th day) of the same compound?
A: Its value is 3.

Q: And the “intensity of the urogenous smell” value (urogenous smell [4])?
A: The value was “decreases on several days from the first administration”.

Q: And the “Efficiency 2nd day” value (urogenous smell [5]; cats (2 heads), 100g/day, 2nd day)?
A: The value was 0/2.

Q: And the “Efficiency 3rd day” value (urogenous smell [5]; cats (2 heads), 100g/day, 3rd day)?
A: The value was 1/2.

Q: And the “Efficiency 4th day” value (urogenous smell [5]; cats (2 heads), 100g/day, 4th day)?
A: The value was 2/2.

Q: And the “Efficiency 5th day” value (urogenous smell [5]; cats (2 heads), 100g/day, 5th day)?
A: Its value is 2/2.

Q: What about the “Efficiency 7th day” value (urogenous smell [5]; cats (2 heads), 100g/day, 7th day) of the same compound?
A: Its value is 2/2.

Q: What about the “deodorizing effect of the compound appears” value (urogenous smell [5]; cats, 100g/day) of the same compound?
A: The value was “by third day”.

Q: And the urogenous smell disappeared (urogenous smell [5]; cats, 100g/day)?
A: Its urogenous smell disappeared is “on forth day”.

Q: And the “Deodorizing Effects 2nd day” value (urogenous smell [5]; individual cat, 100g/day over 7 days, 2nd day)?
A: Its value is 2.

Q: What about the “Deodorizing Effects 3rd day” value (urogenous smell [5]; individual cat, 100g/day, 3rd day) of the same compound?
A: The value was 3 and 2.

Q: What about the “Deodorizing Effects 4th day” value (urogenous smell [5]; individual cat, 100g/day, 4th day) of the same compound?
A: Its value is 3.

Q: And the “Deodorizing Effects 5th day” value (urogenous smell [5]; individual cat, 100g/day, 5th day)?
A: Its value is 3.

Q: And the “Deodorizing Effects 7th day” value (urogenous smell [5]; individual cat, 100g/day, 7th day)?
A: The value was 3.

Q: What about the “Deodorizing Effects 1st day” value (urogenous smell [6]; individual rabbit, 2ml of 20mg/ml solution in 170 ml drinking water per day over 14 days, 1st day) of the same compound?
A: The value was 1.

Q: What about the “Deodorizing Effects 3rd day” value (urogenous smell [6]; individual rabbit, 2ml of 20mg/ml solution in 170 ml drinking water per day, 3rd day) of the same compound?
A: Its value is 2 (3×) and 1.

Q: And the “Deodorizing Effects 5th day” value (urogenous smell [6]; individual rabbit, 2ml of 20mg/ml solution in 170 ml drinking water per day, 5th day)?
A: The value was 3 (3×) and 2.

Q: What about the “Deodorizing Effects 7th day” value (urogenous smell [6]; individual rabbit, 2ml of 20mg/ml solution in 170 ml drinking water per day, 7th day) of the same compound?
A: The value was 3.

Q: What about the “Deodorizing Effects 14th day” value (urogenous smell [6]; individual rabbit, 2ml of 20mg/ml solution in 170 ml drinking water per day, 14th day) of the same compound?
A: Its value is 3.

Q: What about the “Efficiency 1st day” value (urogenous smell [6]; rabbits, 2ml of 20mg/ml solution in drinking water per day, 1st day) of the same compound?
A: Its value is 0/4.

Q: What about the “Efficiency 3rd day” value (urogenous smell [6]; rabbits, 2ml of 20mg/ml solution in drinking water per day, 3rd day) of the same compound?
A: The value was 0/4.

Q: What about the “Efficiency 5th day” value (urogenous smell [6]; rabbits, 2ml of 20mg/ml solution in drinking water per day, 5th day) of the same compound?
A: The value was 3/4.

Q: What about the “Efficiency 7th day” value (urogenous smell [6]; rabbits, 2ml of 20mg/ml solution in drinking water per day, 7th day) of the same compound?
A: Its value is 4/4.

Q: What about the “Efficiency 14th day” value (urogenous smell [6]; rabbits, 2ml of 20mg/ml solution in drinking water per day, 14th day) of the same compound?
A: The value was 4/4.

Q: And the “almost no unpleasant urogenous smell was notified” value (urogenous smell [6]; [10])?
A: Its value is “on fifth day”.

Q: And the “deodorizing effect of the compound appears” value (urogenous smell [6]; [10])?
A: Its value is “by third day”.

Q: And the “fragrant smell (considered due to plant terpenes contained in their food)” value (urogenous smell [6]; [10])?
A: The value was “no change”.
